System: Xylella fastidiosa (Xf)
Type: cell-based
Conditions: crude ethyl acetate extract of culture supernatant; activity traced to metabolite by NMR and MS

SMILES: C/C=C/c1cc2c(c(=O)o1)C(=O)[C@@H](O)[C@H](C)O2 [radicinin]
- anti-Xf activity of extract / metabolite: inhibitory activity

— patent US20200000099A1 (priority 2017, published 2020)
